Laboratory results from article PMC6268586, “Effect of Wine and Vinegar Processing of Rhizoma Corydalis on the Tissue Distribution of Tetrahydropalmatine, Protopine and Dehydrocorydaline in Rats” (Molecules, 2012).
Where two headings read alike, the source gives them in different places.

Assay: Tissue distribution of THP, DHC and protopine in rat tissues after gastric gavage administration (HPLC-UV, non-compartmental analysis)
Assay type: in vivo, Wistar male rats
Conditions: male, Wistar, po, 26.1 mg/kg; for AUC(0-t): read-out: AUC0–24 h of DHC; for Cmax: read-out: Cmax of DHC; for MRT: read-out: MRT of DHC; for Tmax: read-out: Tmax of DHC
Protocol: The experimental protocol was approved by the University's Animal Ethics Committee. […] Rats had unlimited access to water. Standard food was given until 12 h before the experiments. Rhizoma Corydalis was processed according to Pharmacopoeia of Chinese Medicine and National Guideline of Traditional Chinese Medicinal Plants Processing. Briefly, fresh Rhizoma Corydalis was boiled in water till the pith turn light brown color. Cooked rhizome was sliced into pieces (4 mm, diameter) and dried at 25 °C. Dried slices were mixed with edible vinegar (100:20, rhizome/vinegar, w/v) or yellow wine (100:10, rhizome/wine, w/v) and the slices allowed to completely absorb the vinegar or wine. The soaked slices were then stir-fried in a metallic pan over a low flame till they were completely dry. The processed Rhizoma Corydalis was added with 70% ethanol (1:30 w/v) and sonicated for 1 h at room temperature. The extract was then concentrated to remove the ethanol residue and stored at 4 °C for further use. […] The ethanol extract of the unprocessed Rhizoma Corydalis and THP, DHC and protopine pure compound were used as the controls. Three hundred and sixty healthy rats were used in total and are divided into six groups (Group 1-6, sixty rats per group). Drugs were administrated by gastric gavage method. In order to keep the dose of THP, DHC and protopine constant in each group, the amount of ethanol extract of Rhizoma Corydalis administrated was normalized based on the dose of protopine pure compound used. The dose of THP and DHC pure compound administrated was same with that in the ethanol extract of Rhizoma Corydalis. The details were listed below. […] Rats were administrated with the 70% ethanol extract of unprocessed Rhizoma Corydalis at a dose of 17.75 g extract/kg body weight. […] Rats received the extract of vinegar-processed Rhizoma Corydalis at a dose of 15 g extract/kg rat body weight. Group 3: Rats were administrated with the extract of wine processed Rhizoma Corydalis at a dose of 15.78 g extract/kg body weight. […] Rats received THP pure compound at a dose of 6.45 mg/kg body weight. Group 6: Rats were administrated 26.10 mg of DHC pure compound/kg body weight. […] Brian tissue was further dissected into six parts: cerebrum, cerebellum, diencephalons, brain stem, hippocampus and striatum. All the tissue samples were rinsed with ice-old saline and stored at -20 °C until extraction. Tissue samples were homogenized in three volumes of ice-cold biological saline and centrifuged for 10 min at 10,000 g and 4 °C. An aliquot of the supernatant (0.5 mL) was collected. Liquid-liquid extraction was used to extract THP, DHC and protopine. One hundred microliter of 1.0 μg/mL nuciferin (internal standard) was mixed with 0.5 mL aliquots of the supernatant. […] The supernatant was evaporated completely under the nitrogen stream in a 60 °C water bath. The residue was redissolved in 100 μL of methanol. A CoMetro HPLC system (CoMetro Technology Ltd, South […], NJ, USA) with 6000 PVW detector UV-VIS detector was used. […] Ltd., Liaoning, China). Other chromatographic conditions were: column temperature, 35 °C; mobile phase, acetonitrile-0.1% phosphoric acid (pH 3.0) (30:70 v/v); flow rate, 1 mL/min; wavelength, 280 nm. Pharmacokinetic parameters were estimated by non-compartmental analysis using Equiv Test/PK (Statistical Solutions Ltd., Saugus, MA, USA). The maximum concentration (Cmax) and the time to reach the maximum concentration (Tmax) were directly obtained from the observed value. All data were represented as mean ± SD. Comparison of values between groups was performed using one-way ANOVA followed by Tukey's test for comparisons among four groups.

[1] = diencephalon, rat diencephalons

AUC(0-t) [1]: 210 ± 50 ng·h/mL
Cmax [1]: 80 ± 20 ng/mL
MRT [1]: 5.3 ± 0.12 h
Tmax [1]: 0.52 ± 0.11 h
AUC(0-t) (rat brain stem): 410 ± 60 ng·h/mL
Cmax (rat brain stem): 160 ± 30 ng/mL
MRT (rat brain stem): 4.29 ± 0.15 h
Tmax (rat brain stem): 0.5 h
AUC(0-t) (rat cerebellum): 170 ± 30 ng·h/mL
Cmax (rat cerebellum): 50 ± 20 ng/mL
MRT (rat cerebellum): 5.67 ± 0.32 h
Tmax (rat cerebellum): 0.25 h
AUC(0-t) (rat cerebrum): 150 ± 30 ng·h/mL
Cmax (rat cerebrum): 50 ± 10 ng/mL
MRT (rat cerebrum): 5.39 ± 0.19 h
Tmax (rat cerebrum): 0.25 ± 0.02 h
AUC(0-t) (rat heart): 850 ± 120 ng·h/mL
Cmax (rat heart): 440 ± 130 ng/mL
MRT (rat heart): 8.72 ± 6.38 h
Tmax (rat heart): 0.25 h
AUC(0-t) (rat hippocampus): 270 ± 60 ng·h/mL
Cmax (rat hippocampus): 70 ± 20 ng/mL
MRT (rat hippocampus): 8.43 ± 0.51 h
Tmax (rat hippocampus): 1.08 ± 0.07 h
AUC(0-t) (rat kidney): 890 ± 90 ng·h/mL
Cmax (rat kidney): 310 ± 20 ng/mL
MRT (rat kidney): 4.94 ± 0.12 h
Tmax (rat kidney): 0.25 ± 0.01 h
AUC(0-t) (rat liver): 1570 ± 340 ng·h/mL
Cmax (rat liver): 620 ± 180 ng/mL
MRT (rat liver): 4.85 ± 0.1 h
Tmax (rat liver): 0.25 h
AUC(0-t) (rat lung): 570 ± 130 ng·h/mL
Cmax (rat lung): 370 ± 110 ng/mL
MRT (rat lung): 3.98 ± 0.1 h
Tmax (rat lung): 0.25 ± 0.01 h
AUC(0-t) (rat spleen): 830 ± 190 ng·h/mL
Cmax (rat spleen): 360 ± 80 ng/mL
MRT (rat spleen): 3.26 ± 0.08 h
Tmax (rat spleen): 0.25 ± 0.1 h
AUC(0-t) (rat striatum): 210 ± 40 ng·h/mL
Cmax (rat striatum): 60 ± 20 ng/mL
MRT (rat striatum): 7.27 ± 0.3 h
Tmax (rat striatum): 0.25 ± 0.01 h
Structure (SMILES): COc1cc2c(cc1OC)-c1c(C)c3ccc(OC)c(OC)c3c[n+]1CC2 [DHC, dehydrocorydaline]
